Experimental data published in US4672068A, “Antihypertensive 1,4-dihydropyridines having a conjugated ester” (Fujirebio Kabushiki Kaisha, priority 1984, dated 1987).

Assays:
[1] = test system: Male spontaneously hypertensive rats (SHR), arterial blood pressure; test: Depressor response after intravenous administration (30 μg/kg), Table 1; format: in vivo, rat; details: for Duration: '90<' means greater than 90
Description: Male spontaneously hypertensive rats (SHR) which had mean arterial blood pressures higher than 140 mmHg were used for the experiments. Arterial blood pressure was measured through the catherized artery with a pressure transducer (MPU-0.5, manufactured by Nihon Kohden Kabushiki Kaisha). The catheter was inserted into the abdominal aorta via the median coccygcal artery of SHR under light ether anesthesia. The recordings were made on a rectigraph (manufactured by Sanei Sokki Kabushiki Kaisha). The 1,4-dihydropyridine derivatives prepared in the foregoing examples were administered with catheter which was inserted previously into the caudal vein or duodenum at least two hours after the operation. SHR were restrained with wire mesh cage immediately after the operation. Each derivative to be tested was dissolved in 1.5% PVP/ethanol, and then diluted with 0.9% saline or intravenous administration (30 μg/kg), or suspended in 5% gum arabic solution of intraduodenal administration (1 mg/kg).

[2] = test system: Male spontaneously hypertensive rats (SHR), arterial blood pressure; test: Depressor response after intraduodenal administration (1 mg/kg), Table 2; format: in vivo, rat; details: for Half-life: '120<' means greater than 120
Description: Arterial blood pressure was measured through the catherized artery with a pressure transducer (MPU-0.5, manufactured by Nihon Kohden Kabushiki Kaisha). The catheter was inserted into the abdominal aorta via the median coccygcal artery of SHR under light ether anesthesia. The recordings were made on a rectigraph (manufactured by Sanei Sokki Kabushiki Kaisha). The 1,4-dihydropyridine derivatives prepared in the foregoing examples were administered with catheter which was inserted previously into the caudal vein or duodenum at least two hours after the operation. SHR were restrained with wire mesh cage immediately after the operation.

For “1-methyl-3-thienyl-2-propenyl methyl 4-(3-nitrophenyl)-2,6-dimethyl-1,4-dihydropyridine-3,5-dicarboxylate [Example 36]”, the “The time to reach the lowest BP” value [1] was 25.0 min, the “ΔBP (Maximum depressor response)” value [1] was 69 mmHg and the Duration [1] was > 220 min. For the same compound, the “The time to reach the lowest BP” value [2] was 130 min, the “ΔBP (Maximum depressor response)” value [2] was 59 mmHg and the Half-life [2] was > 4 h.
For `COC(=O)C1=C(C)NC(C)=C(C(=O)OC(C)C=Cc2ccccc2)C1c1cccc([N+](=O)[O-])c1` (stereo not shown) [Example 30, 1-methyl-3-phenyl-2-propenyl methyl 4-(3-nitrophenyl)-2,6-dimethyl-1,4-dihydropyridine-3,5-dicarboxylate], the “The time to reach the lowest BP” value [1] was 5.0 min, the “ΔBP (Maximum depressor response)” value [1] was 75 mmHg and the Duration [1] was > 120 min. For the same compound, the “The time to reach the lowest BP” value [2] was 65 min, the “ΔBP (Maximum depressor response)” value [2] was 89 mmHg and the Half-life [2] was > 4 h.
In the case of “4-(4-methoxyphenyl)-3-butenyl methyl 4-(3-nitrophenyl)-2,6-dimethyl-1,4-dihydropyridine-3,5-dicarboxylate [Example 18]”, the “The time to reach the lowest BP” value [2] is reported as 37 min, the “ΔBP (Maximum depressor response)” value [2] is reported as 18 mmHg and the Half-life [2] is reported as 2 h.
For `COC(=O)C1=C(C)NC(C)=C(C(=O)OCC=CC=Cc2ccc3ccccc3c2)C1c1cccc([N+](=O)[O-])c1` (stereo not shown) [Example 53, Methyl 5-(2-naphthyl)-2,4-pentadienyl 4-(3-nitrophenyl)-2,6-dimethyl-1,4-dihydropyridine-3,5-dicarboxylate], the “The time to reach the lowest BP” value [1] was 18 min, the “ΔBP (Maximum depressor response)” value [1] was 25 mmHg and the Duration [1] was 90 min.
In the case of `COC(=O)C1=C(C)NC(C)=C(C(=O)OCCC=Cc2cccs2)C1c1cccc([N+](=O)[O-])c1` (stereo not drawn) [Example 11, 4-α-thienyl-3-butenyl methyl 4-(3-nitrophenyl)-2,6-dimethyl-1,4-dihydropyridine-3,5-dicarboxylate], the “The time to reach the lowest BP” value [1] is reported as 1.6 min, the “ΔBP (Maximum depressor response)” value [1] is reported as 60 mmHg and the Duration [1] is reported as 100 min. For the same compound, the “The time to reach the lowest BP” value [2] was 200 min, the “ΔBP (Maximum depressor response)” value [2] was 25 mmHg and the Half-life [2] was 4 h.
In the case of `COC(=O)C1=C(C)NC(C)=C(C(=O)OC(C)C=CC2=C(C)CCCC2(C)C)C1c1cccc([N+](=O)[O-])c1` (stereo not shown) [Example 74], the “The time to reach the lowest BP” value [1] is reported as 20 min, the “ΔBP (Maximum depressor response)” value [1] is reported as 75 mmHg and the Duration [1] is reported as > 120 min.
For `COC(=O)C1=C(C)NC(C)=C(C(=O)OC(C)C=Cc2ccco2)C1c1cccc([N+](=O)[O-])c1` (stereo not shown) [Example 33, 1-methyl-3-furyl-3-propenyl methyl 4-(3-nitrophenyl)-2,6-dimethyl-1,4-dihydropyridine-3,5-dicarboxylate], the “The time to reach the lowest BP” value [1] was 10.0 min, the “ΔBP (Maximum depressor response)” value [1] was 85 mmHg and the Duration [1] was > 240 min. For the same compound, the “The time to reach the lowest BP” value [2] was 22 min, the “ΔBP (Maximum depressor response)” value [2] was 100 mmHg and the Half-life [2] was > 4 h.
With `COC(=O)C1=C(C)NC(C)=C(C(=O)OCC=CC=Cc2cccc3ccccc23)C1c1cccc([N+](=O)[O-])c1` (stereo not shown) [Example 54, Methyl 5-(1-naphthyl)-2,4-pentadienyl 4-(3-nitrophenyl)-2,6-dimethyl-1,4-dihydropyridine-3,5-dicarboxylate] the “The time to reach the lowest BP” value [1] was 6.0 min, the “ΔBP (Maximum depressor response)” value [1] was 30 mmHg and the Duration [1] was > 90 min.
For `CCSCCOC(=O)C1=C(C)NC(C)=C(C(=O)OCC=Cc2ccccc2)C1c1cccc([N+](=O)[O-])c1` (stereo not shown) [Example 41, cinnamyl 2-ethylthioethyl 4-(3-nitrophenyl)-2,6-dimethyl-1,4-dihydropyridine-3,5-dicarboxylate], the “The time to reach the lowest BP” value [1] was 5 min, the “ΔBP (Maximum depressor response)” value [1] was 28 mmHg and the Duration [1] was > 120 min.
`CC=CC=CCOC(=O)C1=C(C)NC(C)=C(C(=O)OC)C1c1cccc([N+](=O)[O-])c1` (stereo not shown) [Example 66, methyl 2,4-hexadienyl 4-(3-nitrophenyl)-2,6-dimethyl-1,4-dihydropyridine-3,5-dicarboxylate] was tested, and the “The time to reach the lowest BP” value [1] was 1.4 min, the “halflife (number in parentheses in Duration column)” value [1] was 0.722 h and the “ΔBP (Maximum depressor response)” value [1] was 71.7 mmHg. The Duration [1] was > 90 min, the “The time to reach the lowest BP” value [2] was 35 min and the “ΔBP (Maximum depressor response)” value [2] was 65 mmHg. For the same compound, the Half-life [2] was > 2 h.
With `COC(=O)C1=C(C)NC(C)=C(C(=O)OC/C=C\C=C\c2ccccc2)C1c1cccc([N+](=O)[O-])c1` (stereo not shown) [Example 59, Methyl (2Z,4E)-5-phenyl-2,4-pentadienyl 4-(3-nitrophenyl)-2,6-dimethyl-1,4-dihydropyridine-3,5-dicarboxylate] the “The time to reach the lowest BP” value [1] was 1.8 min and the “ΔBP (Maximum depressor response)” value [1] was 56.7 mmHg.
For `C=CCCOC(=O)C1=C(C)NC(C)=C(C(=O)OCC=CC=CC)C1c1cccc([N+](=O)[O-])c1` (stereo not shown) [Example 79, 3-butenyl 2,4-hexadienyl 4-(3-nitrophenyl)-2,6-dimethyl-1,4-dihydropyridine-3,5-dicarboxylate], the “The time to reach the lowest BP” value [1] was 2.7 min and the “ΔBP (Maximum depressor response)” value [1] was 55 mmHg.
For `CC=CC=CCOC(=O)C1=C(C)NC(C)=C(C(=O)OCC=CC=CC)C1c1cccc([N+](=O)[O-])c1` (stereo not shown) [Example 73, bis(2,4-hexadienyl) 4-(3-nitrophenyl)-2,6-dimethyl-1,4-dihydropyridine-3,5-dicarboxylate], the “The time to reach the lowest BP” value [1] was 6.0 min, the “ΔBP (Maximum depressor response)” value [1] was 55 mmHg and the Duration [1] was > 120 min.
For `CCOC(=O)C1=C(C)NC(C)=C(C(=O)OC(C)C=Cc2ccccc2)C1c1cccc([N+](=O)[O-])c1` (stereo not shown) [Example 31, 1-methyl-3-phenyl-2-propenyl ethyl 4-(3-nitrophenyl)-2,6-dimethyl-1,4-dihydropyridine-3,5-dicarboxylate], the “The time to reach the lowest BP” value [1] was 40 min, the “ΔBP (Maximum depressor response)” value [1] was 73 mmHg and the Duration [1] was > 170 min.
In the case of `COC(=O)C1=C(C)NC(C)=C(C(=O)OC(C=Cc2ccccc2)C(C)C)C1c1cccc([N+](=O)[O-])c1` (stereo not shown) [Example 8, 1-isopropyl-3-phenyl-2-propenyl methyl 4-(3-nitrophenyl)-2,6-dimethyl-1,4-dihydropyridine-3,5-dicarboxylate], the “The time to reach the lowest BP” value [1] is reported as 25 min, the “ΔBP (Maximum depressor response)” value [1] is reported as 87 mmHg and the Duration [1] is reported as > 180 min.
With `COC(=O)C1=C(C)NC(C)=C(C(=O)OCCCc2ccccc2)C1c1cccc([N+](=O)[O-])c1` (stereo not shown) [E, 4(3-nitrophenyl)-2,6-dimethyl-1,4-dihydropyridine-3,5-dicarboxylic aci 3methyl ester 5(3-phenyl)-1-propyl ester, reference compound] the “ΔBP (Maximum depressor response)” value [2] was 0 mmHg.
In the case of `CC1=C(C(=O)OCC=Cc2ccccc2)C(c2cccc([N+](=O)[O-])c2)C(C(=O)OCC=Cc2ccccc2)=C(C)N1` (stereo not shown) [Example 45, Dicinnamyl 4-(3-nitrophenyl)-2,6-dimethyl-1,4-dihydropyridine-3,5-dicarboxylate], the “The time to reach the lowest BP” value [1] is reported as 27 min, the “ΔBP (Maximum depressor response)” value [1] is reported as 32 mmHg and the Duration [1] is reported as > 90 min.
`COC(=O)C1=C(C)NC(C)=C(C(=O)OCCC=Cc2ccccc2)C1c1cccc([N+](=O)[O-])c1` (stereo not shown) [Example 4, 4-phenyl-3-butenyl methyl 4-(3-nitrophenyl)-2,6-dimethyl-1,4-dihydropyridine-3,5-dicarboxylate] was tested, and the “The time to reach the lowest BP” value [1] was 1.3 min, the “ΔBP (Maximum depressor response)” value [1] was 63.3 mmHg and the Duration [1] was > 90 min. For the same compound, the “The time to reach the lowest BP” value [2] was 105 min, the “ΔBP (Maximum depressor response)” value [2] was 20 mmHg and the Half-life [2] was > 2.83 h.
With `COC(=O)C1=C(C)NC(C)=C(C(=O)OCC=C(C)c2ccccc2)C1c1cccc([N+](=O)[O-])c1` (stereo not shown) [Example 5, 3-phenyl-2-butenyl methyl 4-(3-nitrophenyl)-2,6-dimethyl-1,4-dihydropyridine-3,5-dicarboxylate] the “The time to reach the lowest BP” value [1] was 1.0 min, the “ΔBP (Maximum depressor response)” value [1] was 44 mmHg and the Duration [1] was 65 min.
In the case of `CC1=C(C(=O)OC(C)C)C(c2cccc([N+](=O)[O-])c2)C(C(=O)OC(C)C=Cc2ccccc2)=C(C)N1` (stereo not shown) [Example 32, 1-methyl-3-phenyl-2-propenyl isopropyl 4-(3-nitrophenyl)-2,6-dimethyl-1,4-dihydropyridine-3,5-dicarboxylate], the “The time to reach the lowest BP” value [1] is reported as 5 min, the “ΔBP (Maximum depressor response)” value [1] is reported as 90 mmHg and the Duration [1] is reported as > 190 min.
With `C=CCOC(=O)C1=C(C)NC(C)=C(C(=O)OC)C1c1cccc([N+](=O)[O-])c1` (stereo not shown) [C, 4(3-nitrophenyl)-2,6-dimethyl-1,4-dihydropyridine-3,5-dicarboxylic aci 3methyl ester 5allyl ester, reference compound] the “The time to reach the lowest BP” value [2] was 8 min, the “ΔBP (Maximum depressor response)” value [2] was 20 mmHg and the Half-life [2] was 0.333 h.
In the case of `COC(=O)C1=C(C)NC(C)=C(C(=O)OCC=C(c2ccccc2)c2ccccc2)C1c1cccc([N+](=O)[O-])c1` (stereo not shown) [Example 9, 3,3-diphenyl-2-propenyl methyl 4-(3-nitrophenyl)-2,6-dimethyl-1,4-dihydropyridine-3,5-dicarboxylate], the “The time to reach the lowest BP” value [1] is reported as 13 min, the “ΔBP (Maximum depressor response)” value [1] is reported as 12 mmHg and the Duration [1] is reported as > 240 min.
`C#CCOC(=O)C1=C(C)NC(C)=C(C(=O)OC)C1c1cccc([N+](=O)[O-])c1` (stereo not shown) [D, 4(3-nitrophenyl)-2,6-dimethyl-1,4-dihydropyridine-3,5-dicarboxylic aci 3methyl ester 5propargyl ester, reference compound] was tested, and the “ΔBP (Maximum depressor response)” value [2] was 0 mmHg.
